Assay: xn = mol fraction of the nth substance listed
Conditions: 100 kPa, Liquid; for mass density: Vibrating tube method; for viscosity: Falling or rolling sphere viscometry

CC(C)C1CCCCC1 [(1-methylethyl)cyclohexane] + c1ccc2c(c1)CCCC2
Conditions | mass density [kg/m3] | viscosity [mPa·s]
318.15 K, x2 = 0 | 782.59 | –
318.15 K, x2 = 0.0995 | 797.11 | –
318.15 K, x2 = 0.1995 | 812.17 | –
318.15 K, x2 = 0.299 | 827.63 | –
318.15 K, x2 = 0.4004 | 843.82 | –
318.15 K, x2 = 0.5006 | 860.23 | –
318.15 K, x2 = 0.5995 | 876.81 | –
318.15 K, x2 = 0.7015 | 894.39 | –
318.15 K, x2 = 0.7991 | 911.63 | –
318.15 K, x2 = 0.9006 | 930.21 | –
323.15 K, x2 = 0 | 778.66 | 0.738
323.15 K, x2 = 0.0995 | 793.18 | 0.761
323.15 K, x2 = 0.1995 | 808.24 | 0.795
323.15 K, x2 = 0.299 | 823.7 | 0.831
323.15 K, x2 = 0.4004 | 839.88 | 0.875
323.15 K, x2 = 0.5006 | 856.3 | 0.93
323.15 K, x2 = 0.5995 | 872.87 | 0.982
323.15 K, x2 = 0.7015 | 890.45 | 1.05
323.15 K, x2 = 0.7991 | 907.69 | 1.123
323.15 K, x2 = 0.9006 | 926.26 | 1.219
328.15 K, x2 = 0 | 774.72 | 0.698
328.15 K, x2 = 0.0995 | 789.24 | 0.72
328.15 K, x2 = 0.1995 | 804.3 | 0.751
328.15 K, x2 = 0.299 | 819.76 | 0.784
328.15 K, x2 = 0.4004 | 835.94 | 0.825
328.15 K, x2 = 0.5006 | 852.35 | 0.875
328.15 K, x2 = 0.5995 | 868.92 | 0.922
328.15 K, x2 = 0.7015 | 886.5 | 0.985
328.15 K, x2 = 0.7991 | 903.74 | 1.051
328.15 K, x2 = 0.9006 | 922.3 | 1.137
333.15 K, x2 = 0 | 770.77 | 0.661
333.15 K, x2 = 0.0995 | 785.29 | 0.681
333.15 K, x2 = 0.1995 | 800.35 | 0.711
333.15 K, x2 = 0.299 | 815.81 | 0.741
333.15 K, x2 = 0.4004 | 831.99 | 0.779
333.15 K, x2 = 0.5006 | 848.4 | 0.825
333.15 K, x2 = 0.5995 | 864.97 | 0.869
333.15 K, x2 = 0.7015 | 882.54 | 0.926
333.15 K, x2 = 0.7991 | 899.78 | 0.986
333.15 K, x2 = 0.9006 | 918.35 | 1.065
338.15 K, x2 = 0 | 766.81 | 0.628
338.15 K, x2 = 0.0995 | 781.34 | 0.647
338.15 K, x2 = 0.1995 | 796.4 | 0.674
338.15 K, x2 = 0.299 | 811.85 | 0.703
338.15 K, x2 = 0.4004 | 828.03 | 0.737
338.15 K, x2 = 0.5006 | 844.44 | 0.78
338.15 K, x2 = 0.5995 | 861.01 | 0.82
338.15 K, x2 = 0.7015 | 878.57 | 0.873
338.15 K, x2 = 0.7991 | 895.81 | 0.928
338.15 K, x2 = 0.9006 | 914.37 | 0.999
343.15 K, x2 = 0 | 762.84 | 0.598
343.15 K, x2 = 0.0995 | 777.38 | 0.616
343.15 K, x2 = 0.1995 | 792.44 | 0.641
343.15 K, x2 = 0.299 | 807.89 | 0.668
343.15 K, x2 = 0.4004 | 824.07 | 0.7
343.15 K, x2 = 0.5006 | 840.47 | 0.74
343.15 K, x2 = 0.5995 | 857.04 | 0.776
343.15 K, x2 = 0.7015 | 874.6 | 0.825
343.15 K, x2 = 0.7991 | 891.84 | 0.875
343.15 K, x2 = 0.9006 | 910.39 | 0.942

Source: the NIST ThermoML archive (doi:10.1021/acs.jced.8b00662)
